{
  "source": "patent US12024721B2",
  "about": "“Method of differentiating human pluripotent stem cells to podocytes” (Wisconsin Alumni Research Foundation, priority 2017, dated 2024)",
  "key": {"hPSCs [1]": {"tested_on": "hPSCs", "conditions": "6 μM, undifferentiated hPSCs, serum-free and albumin-free medium, after 24 hours; cited from earlier work"}, "hPSCs [2]": {"tested_on": "hPSCs", "test": "Primitive streak induction of hPSCs by Wnt activation (brachyury immunofluorescence / flow cytometry)", "format": "cell-based, human", "method": "Thus, as a first step toward differentiating hPSCs into podocytes, induced hPSCs (iPSCs) were seeded on a Matrigel®-coated surface at a density of ˜2×10^4 cells/cm^2 in mTeSR®1. After 3 days of expansion to a density of 6×10^4 cells/cm^2, the hPSCs were treated with 6 μM CHIR99201 for 48 hr in serum-free and albumin-free podocyte medium 1 (PM1: DMEM/F12, 1% MEM-NEAA, 0.5% GlutaMAX, 0.1 mM β-mercaptoethanol) (FIG. 1A). […] After 48 hr CHIR99201 treatment in PM1, the medium was switched to serum-free podocyte medium 2 (PM2: human endothelial serum-free medium (hESFM), 2% B-27®) and cultured to day 16. The kinetics of primitive streak induction were assessed by immunofluorescence and qRT-PCR. […] At day 0, differentiation was initiated by treating cells with 6 μM CHIR99021 (Selleckchem) in podocyte medium 1 (PM1): DMEM/Ham's F12 (Thermo Fisher), 100×MEM nonessential amino acids (Thermo Fisher), 200× GlutaMAX (Thermo Fisher), and 0.1 mM β-mercaptoethanol (Sigma) for 2 days. After 48 hr, medium was changed to podocyte medium 2 (PM2): human Endothelial Serum-Free Medium (hESFM) (Thermo Fisher) supplemented with 50× B-27®. […] Cells were stained with primary and secondary antibodies diluted in 0.5% BSA plus 0.1% Triton-X 100 as described.^34 Data were collected on a FACS Caliber flow cytometer (Beckton Dickinson) and analyzed using FlowJo®. […]"}, "[3]": {"tested_on": "BMP-induced SMAD1/5/8 phosphorylation", "test": "Phosphorylated SMAD Western blot after dorsomorphin treatment of differentiating cells", "format": "cell-based, human", "conditions": "added from days 1-3 of differentiation; P-SMAD at day 3; 0 to 10 μM tested", "method": "Singularized IMR90-4 hPSCs were seeded on 12-well plates coated with Matrigel®, Synthemax® or vitronectin and expanded for 3 days in mTeSR®1. Podocyte differentiation was initiated with treatment using 6 μM CHIR (CHIR99021) for 48 h in PM1 followed by treatment with different combinations of 0.1 μM or 1 μM RA, 50 ng/mL BMP7 and 50 ng/mL FGF2 from day 2 to day 6 in PM2. […] (D, E) Expression of phosphorylated SMAD was assessed by Western blot after cells were treated with dorsomorphin (0 μM to 10 μM) from day 1 to day 3 or from day 3 to day 4. […] Data were collected from three independent replicates and are plotted as mean±SEM. *p<0.05. ***p<0.001. […] Cells were dissociated with Accutase® and rinsed with PBS twice before being lysed with RIPA (ROCKLAND) in the presence of 1% Halt Protease and Phosphatase Inhibitor Cocktail (Pierce). Protein concentration was determined by a BCA assay kit (Thermo Fisher) according to manufacturer's instructions. Samples containing 30 μg of total protein were loaded onto pre-cast 10% Tris-Glycine SDS/PAGE gels (Invitrogen) under denaturing conditions and transferred to a nitrocellulose membrane. After blocking with 5% non-fat milk in TBST, the membrane was incubated with primary antibody (Table 1) overnight at 4° C. […]"}, "IMR90-4 hPSCs": {"tested_on": "IMR90-4 hPSCs", "test": "WT1 expression at day 6 by Western blot after treatment with BMP7, RA, FGF2 from day 2 to day 6", "format": "cell-based, human", "conditions": "treatment day 2 to day 6 in PM2", "experimental": "FIGS. 3A-3L Wnt signaling activation alone is sufficient to differentiate hPSCs into nephron progenitor cells. (A) Schematic of podocyte differentiation factor identification. Singularized IMR90-4 hPSCs were seeded on 12-well plates coated with Matrigel®, Synthemax® or vitronectin and expanded for 3 days in mTeSR®1. Podocyte differentiation was initiated with treatment using 6 μM CHIR (CHIR99021) for 48 h in PM1 followed by treatment with different combinations of 0.1 μM or 1 μM RA, 50 ng/mL BMP7 and 50 ng/mL FGF2 from day 2 to day 6 in PM2. (B) Cells at day 6 were assessed by Western blot for the expression level of WT1. (C) Expression level was quantified via Image J. The expression was first normalized to β-actin and then compared to WT1 expression in the absence of FGF2, RA and BMP7. (D, E) Expression of phosphorylated SMAD was assessed by Western blot after cells were treated with dorsomorphin (0 μM to 10 μM) from day 1 to day 3 or from day 3 to day 4. (F, G) Expression of BMP7 at day 1 and day 2 was verified by immunofluorescence and Western blot of cell lysate. (H, I) Cells were differentiated in the presence or absence of 1 μM dorsomorphin treatment from day 1 to day 3 and at day 16 were assessed for expression of PAX2 and WT1 by flow cytometry. Data were collected from three independent replicates and are plotted as mean±SEM. *p<0.05. ***p<0.001. […]"}, "[4]": {"tested_on": "IMR90-4 iPSC-derived podocytes", "test": "Apoptosis assay: dead cells by trypan blue after TGF-β1", "format": "cell-based, human", "conditions": "5 or 50 ng/mL, 24 hr, day 16 podocytes; control 2%", "experimental": "(§1) At day 16, cells were treated with 500 ng/mL Ang II for 6 hr and phalloidin staining was used to assess changes in cytoskeletal structure. White arrows indicate the cells with peripheral F-actin. (B) More than 200 cells over 15 images were analyzed and the percentage of cells with peripherally-organized actin was calculated for control and Ang II-treated cells. Data are presented as mean percentage±SEM of three independent experiments over 15 images. Scale bars, 100 μm. (C) At day 16, cells were treated with 5 ng/mL and 50 ng/mL TGF-β1 for 24 hr. Detached cells were collected from the medium and combined with Accutase®-dissociated cells from the substrate. Cells were treated with trypan blue and the numbers of cells incorporating and excluding trypan blue were counted on a hemocytometer. Percentage of dead cells was calculated as the number of cells that incorporated trypan blue divided by the total cell number. […]\n(§2) Podocytes uptake albumin via endocytosis and degrade albumin in lysosomes^52,53. We assessed the ability of day 16 iPSC-derived podocytes to endocytose Alexa Fluor 555-labeled albumin in a temperature-dependent manner. […]\n(§3) Differentiated podocytes at day 16 were treated with 500 ng/ml Ang II for 6 hr or […] TGF-β1 for 24 hr. […] The cells treated with TGF-β1 after 24 hr were assessed by counting dead cells with trypan blue exclusion."}, "[5]": {"tested_on": "IMR90-4 iPSC-derived podocytes", "test": "Contractility assay: actin reorganization (phalloidin staining) after Ang II", "format": "cell-based, human", "conditions": "500 ng/mL, 6 hr, day 16 podocytes; control about 20%", "experimental": "as §1, §2, §3"}},
  "data": [
    {"molecule": "Cc1c[nH]c(-c2cnc(NCCNc3ccc(C#N)cn3)nc2-c2ccc(Cl)cc2Cl)n1", "note": "[CHIR99021]", "values": [
      {"measurement": "population expressing primitive streak markers (prior study)", "setting": "hPSCs [1]", "result": "uniform population of cells expressing primitive streak markers"},
      {"measurement": "ability alone to direct hPSC lines into intermediate mesoderm, nephron progenitors and mature podocytes", "setting": "hPSCs [2]; 6 μM alone, podocyte permissive medium, three different hPSC lines", "result": "sufficient"},
      {"measurement": "cells expressing the primitive streak marker brachyury (positive population)", "setting": "hPSCs [2]; 6 μM, 24 hr treatment, PM1, iPSCs on Matrigel", "result": "~100", "unit": "%"}
    ]},
    {"molecule": "c1cc(-c2cnn3cc(-c4ccc(OCCN5CCCCC5)cc4)cnc23)ccn1", "note": "[dorsomorphin]", "values": [
      {"measurement": "dorsomorphin concentration at which SMAD phosphorylation was completely inhibited", "setting": "[3]", "result": "higher than 5 μM"}
    ]},
    {"molecule": "FGF2: fibroblast growth factor, exogenous growth factor", "values": [
      {"measurement": "effect on WT1 expression in the hPSC-derived podocytes", "setting": "IMR90-4 hPSCs", "result": "diminished"}
    ]},
    {"molecule": "TGF-β1: induces cell death in primary and immortalized podocytes", "values": [
      {"measurement": "percentage of dead cells (trypan blue uptake)", "setting": "[4]", "result": 15, "unit": "%"}
    ]},
    {"molecule": "angiotensin II [Ang II, induces podocyte damage by altering cytoskeletal structure and inducing contractility]", "values": [
      {"measurement": "percentage of cells with peripheral actin", "setting": "[5]", "result": "Over 50%"}
    ]},
    {"molecule": "BMP7: bone morphogenetic protein, exogenous growth factor (protein, UniProt P18075 293-431, looked up) Bone morphogenetic protein 7: STGSKQRSQNRSKTPKNQEALRMANVAENSSSDQRQACKKHELYVSFRDLGWQDWIIAPEGYAAYYCEGECAFPLNSYMNATNHAIVQTLVHFINPETVPKPCCAPTQLNAISVLYFDDSSNVILKKYRNMVVRACGCH", "values": [
      {"measurement": "effect on WT1 expression in the hPSC-derived podocytes", "setting": "IMR90-4 hPSCs", "result": "diminished"}
    ]}
  ]
}
